In patent publication US6599541B1, “Composition for treatment of drug resistant bacterial infections and a method of treating drug resistant bacterial infections” (priority 1999, dated 2003):
In brackets after ≈: the same amount, converted by molar mass. Read-outs that look alike come from different tables or passages of the source.

Legend:
Klebsiella pneumoniae [1] = assay: Broth Macro Dilution Test, MIC and MBC; type: cell-based; conditions: antibiotic alone
Text: (§1) This was done by estimation of the Minimum Inhibitory Concentration (MIC) and Minimum Bactericidal Concentration (MBC) on the selected isolates by a Broth Macro Dilution Test.
(§2) While conducting these tests, the guidelines given by the National committee of Clinical Laboratory Standards 1995 protocols were employed. Cation Supplemented Mueller Hinton Broth was used as medium for all organisms excepting for β haemolytic streptococci for which, Todd Hewit's Broth was used as medium.
(§3) The following concentrations of antibiotics were tested to determine MIC and MBC.
(§4) Co-trimoxazole (Sulpharnethoxazole/Trimethoprim/μg/μg per ml)
(§5) A minimum inhibitory concentration is the lowest level of antibiotic needed to cause an inhibition to bacterial growth in culture medium whereas, the minimum bactericidal concentration is the lowest concentration of antibiotic to achieve a 100% killing of bacteria. Thus, these two values are the practical indices of intensity of bacterial resistance to a given antibiotic. On the other hand, a break-even point of any antibiotic indicates the attainable blood levels after an administration of full dose, in human/animal body. Thus, this point indicates the practical dosage of administering any given antibiotic effectively and beyond this point, even if an antibiotic is found to act effectively in experimental situation—such dose cannot be administered in a clinical situation.

Salmonella senftenberg [2] = assay: Broth Macro Dilution Test, MIC and MBC; type: cell-based; conditions: Example 13: strain from burn wound swab culture, antibiotic alone
Text: as §1, §2, §3, §4, §5

[3] = highest serum concentration reached after the maximum therapeutic dose in-vivo; cited from earlier work
Staphylococcus aureus [4] = assay: Broth Macro Dilution Test, MIC and MBC; type: cell-based; conditions: Example 12: strain from non-healing burn wound swab culture, antibiotic alone
Method: as §1
Cation Supplemented Mueller Hinton Broth was used as medium for all organisms excepting for β haemolytic streptococci for which, Todd Hewit's Broth was used as medium.
as §3, §5

Enterobacter spp. [5] = assay: Broth tube test of NE with antibiotic at break point, percentage of killing; type: cell-based; conditions: for bacterial growth in control tubes: NE and antibiotic added individually; for bactericidal effect: antibiotic 4 μg/ml (break point) combined with NE 125, 250, 500, 1000 μg/ml
Method: (§6) Since all the study isolates are resistant to the concerned antibiotics, each antibiotic is taken at its breakpoint concentration, (the highest serum concentration of that particular antibiotic reached after the maximum therapeutic dose in-vivo). The break points for various antibiotics are as follows:
(§7) Preparation of Neem Extract: Stock solution of neem extract (1 mg/ml) was prepared, filtered and autoclaved. It was used in 4 concentrations—1000 μg/ml; 500 μg/ml; 250 μg/ml; 125 μg/ml.
(§8) A set of four tubes with variable concentrations of the extract is prepared and to each of these tubes, the break point concentration of antibiotics is added. Now, these sets are inoculated with the study isolate in the same manner as per the broth dilution procedure. A set of six controls is inoculated with each isolate—in parallel with the main experiment.
(§9) 2. Only antibiotic solution
(§10) 3. Medium and antibiotic solution with inoculum
(§11) 5. Only Neem extract at 250 μg/ml
(§12) 6. Medium with Neem Extract and inoculum
(§13) Reading the test All the tests and control tubes are observed for visible turbidity of growth first. Since all the study isolates were earlier confirmed to be resistant to the antibiotics, the bacterial growth is expected at the breakpoint concentration of the antibiotic. Any reduction in the turbidity as compared to the control tube no. 3 is noted as a possible additive or synergistic effect of the neem extract with the antibiotic. In absence of such effect, the tubes may show growth matching with the control no. 4.
(§14) In case of a positive result, further sub-culturing was taken up, on solid media for colony counts with a calibrated loop. The colony counts could be noted by a semi quantitative method as 101 to 10^5 CFU/ml (Colony forming units). This is finally expressed as the percentage of killing as compared to the colony count obtained with control no. 4. Usually control tubes no. 3, 4 and 6 had similar colony counts.

Klebsiella pneumoniae [6] = assay: as above; type: cell-based; conditions: for bacterial growth in control tubes: NE and antibiotic added individually
Method: as §6, §7, §8, §9, §10, §11, §12, §13, §14

Salmonella senftenberg [7] = assay: as above; type: cell-based; conditions: Example 13 strain
Method: as §6, §7, §8, §9, §10, §11, §12, §13, §14

Escherichia coli [8] = assay: as above; type: cell-based; conditions: for bacterial growth in control tubes: NE and antibiotic added individually; for bactericidal effect: antibiotic 4 μg/ml (break point) combined with NE 125, 250, 500, 1000 μg/ml
Method: as §6, §7, §8, §9, §10, §11, §12, §13, §14

Staphylococcus aureus [9] = assay: as above; type: cell-based; conditions: Example 12 strain
Method: as §6, §7, §8, §9, §10, §11, §12, §13, §14

Enterobacter spp. [10] = assay: Broth Macro Dilution Test, MIC and MBC; type: cell-based; conditions: antibiotic alone
Text: as §1, §2, §3, §5

Escherichia coli [11] = assay: Broth Macro Dilution Test, MIC and MBC; type: cell-based; conditions: resistant to Ciprofloxacin, antibiotic alone, read-out: minimum bactericidal concentration (MBC)
Text: as §1, §2, §3, §5

Staphylococcus aureus [12] = assay: Agar Dilution Method of Sensitivity testing, NE alone and NE + antibiotic; type: cell-based; conditions: resistant S. aureus cultures, 48 hours
Method: Two kinds of investigations were carried-out using these bacterial isolates—using an Agar Dilution Method of Sensitivity testing.
i) To ascertain whether, NE can work as an antibacterial substance on its own. For this purpose, a stock-solution of NE was prepared and was sterilized as described in the preliminary experiments.
ii) This stock-solution was dispensed into the culture medium (Mueller Hinton Agar) so as to provide while; the medium was in liquid form. Four different concentrations of NE, viz.
iii) This medium was poured into petri dishes and allowed to solidify. Resistant cultures were inoculated on to these plates and after incubation for 48 hours, the growth patterns were assessed.
iv) The experiments were run in triplicate, for each concentration—as per standard practices of microbiological testing procedures.
i) The culture medium (Mueller Hinton Agar) was melted and distributed into a number of test tubes.
ii) The stock solution of NE was dispensed into these test tubes in four different concentrations viz.
iii) In the same medium, one of the antibiotics under investigation was also added so as to provide a variable concentration (at break-even point concentration) as described below:
iv) The culture medium containing NE extract+the antibiotic were poured into petri dishes and allowed to solidify.
v) The resistant bacterial strains were inoculated onto these plates, incubated for 48 hours and the growth patterns were studied on each plate.
These cultures were obtained various clinical samples, such as sputum, non-healing infected wounds, throat swabs etc.

[13] = Example 3 strain, antibiotic at break point in combination with NE, uniform at 1000, 500, 250, 125 μg/ml
[14] = Example 4 strain, antibiotic at break-even concentration with NE, uniform at all four NE concentrations
[15] = Example 11: isolate from Endotracheal catheter tip culture
[16] = Example 3: strain from non-healing burn wound
[17] = Example 4: strain from wound swab culture
[18] = antibiotic at break-even point + NE 125 μg/mL
[19] = antibiotic at break-even point + NE 250 μg/mL
[20] = antibiotic at break-even point + NE 500 μg/mL
[21] = antibiotic at break-even point + NE 1000 μg/mL

Compound: O=C(O)c1cn(C2CC2)c2cc(N3CCNCC3)c(F)cc2c1=O [Ciprofloxacin]
- MBC (Klebsiella pneumoniae [1]; Klebsiella pneumoniae, Example 3: strain from non-healing burn wound, read-out: MBC): > 64 µg/mL
- MIC (Klebsiella pneumoniae [1]; Klebsiella pneumoniae, Example 3: strain from non-healing burn wound, read-out: MIC): 16 µg/mL (≈ 48.3 µM)
- MBC (Klebsiella pneumoniae [1]; Klebsiella pneumoniae, Example 4: strain from wound swab culture, read-out: MBC): > 128 µg/mL
- MIC (Klebsiella pneumoniae [1]; Klebsiella pneumoniae, Example 4: strain from wound swab culture, read-out: MIC): 32 µg/mL (≈ 96.6 µM)
- MBC (Klebsiella pneumoniae [1]; Klebsiella pneumoniae, Example 5: isolate from Endotracheal Catheter Tip culture, read-out: minimum bactericidal concentration (MBC)): > 128 µg/mL
- MIC (Klebsiella pneumoniae [1]; Klebsiella pneumoniae, Example 5: isolate from Endotracheal Catheter Tip culture, read-out: minimum inhibitory concentration (MIC)): 32 µg/mL (≈ 96.6 µM)
- MBC (Klebsiella pneumoniae [1]; Klebsiella pneumoniae, Example 6: isolate from Endotracheal Catheter tip culture, read-out: minimum bactericidal concentration (MBC)): > 128 µg/mL
- MIC (Klebsiella pneumoniae [1]; Klebsiella pneumoniae, Example 6: isolate from Endotracheal Catheter tip culture, read-out: minimum inhibitory concentration (MIC)): 32 µg/mL (≈ 96.6 µM)
- MBC (Klebsiella pneumoniae [1]; Klebsiella pneumoniae, Example 7: isolate from endotracheal catheter tip culture, read-out: minimum bactericidal concentration (MBC)): > 128 µg/mL
- MIC (Klebsiella pneumoniae [1]; Klebsiella pneumoniae, Example 7: isolate from endotracheal catheter tip culture, read-out: minimum inhibitory concentration (MIC)): 32 µg/mL (≈ 96.6 µM)
- MBC (Salmonella senftenberg [2]; Salmonella enterica, read-out: MBC): > 128 µg/mL
- MIC (Salmonella senftenberg [2]; Salmonella enterica, read-out: MIC): 32 µg/mL (≈ 96.6 µM)
- break point [3]: 4 µg/mL
- MBC (Staphylococcus aureus [4]): > 128 µg/mL
- MIC (Staphylococcus aureus [4]): 32 µg/mL (≈ 96.6 µM)
- bacterial growth in control tubes (Enterobacter spp. [5]; Example 10 isolate): unhindered
- bactericidal effect (Enterobacter spp. [5]; Example 10 isolate): 80%
- bacterial growth in control tubes (Enterobacter spp. [5]; Example 11 isolate): unhindered
- bactericidal effect (Enterobacter spp. [5]; Example 11 isolate): 50%
- killing (Klebsiella pneumoniae [6]; [13]): 99%
- killing (Klebsiella pneumoniae [6]; [14]): 90%
- bacterial growth in control tubes (Klebsiella pneumoniae [6]; Example 5 isolate): unhindered
- bactericidal effect (Klebsiella pneumoniae [6]; Example 5 isolate, antibiotic 4 μg/ml (break-even point) combined with NE 125, 250, 500, 1000 μg/ml): 90%
- bacterial growth in control tubes (Klebsiella pneumoniae [6]; Example 6 isolate): unhindered
- bactericidal effect (Klebsiella pneumoniae [6]; Example 6 isolate, antibiotic 4 μg/ml (break point) combined with NE 125, 250, 500, 1000 μg/ml): 80%
- bacterial growth in control tubes (Klebsiella pneumoniae [6]; Example 7 isolate): unhindered
- bactericidal effect (Klebsiella pneumoniae [6]; Example 7 isolate, antibiotic 4 μg/ml (break point) combined with NE 125, 250, 500, 1000 μg/ml): 50%
- killing (Salmonella senftenberg [7]; antibiotic added to 1000 μg/ml NE): 50%
- killing effect (Salmonella senftenberg [7]; antibiotic with 500 μg/ml NE): somewhat low
- killing effect (Salmonella senftenberg [7]; antibiotic with NE at other concentrations (below 500 μg/ml)): not found
- bacterial growth in control tubes (Escherichia coli [8]; Example 1 isolate): unhindered
- bactericidal effect (Escherichia coli [8]; Example 1 isolate): 100%
- bacterial growth in control tubes (Escherichia coli [8]; Example 2 isolate): unhindered
- bactericidal effect (Escherichia coli [8]; Example 2 isolate): 40%
- killing (Staphylococcus aureus [9]; antibiotic 4 μg/ml in combination with 250 μg/ml and 125 μg/ml NE): 80%
- bactericidal effect (Staphylococcus aureus [9]; antibiotic 4 μg/ml with 1000 μg/ml, 500 μg/ml of NE): 20%
- MBC (Enterobacter spp. [10]; Enterobacter, Example 10: isolate from Endotracheal Catheter Tip culture, read-out: minimum bactericidal concentration (MBC)): > 128 µg/mL
- MIC (Enterobacter spp. [10]; Enterobacter, Example 10: isolate from Endotracheal Catheter Tip culture, read-out: minimum inhibitory concentration (MIC)): 32 µg/mL (≈ 96.6 µM)
- minimum bactericidal concentration (MBC) (Enterobacter spp. [10]; [15]): > 128 µg/mL
- minimum inhibitory concentration (MIC) (Enterobacter spp. [10]; [15]): 32 µg/mL (≈ 96.6 µM)
- MBC (Escherichia coli [11]; Example 1: isolate from wound infection): 64 µg/mL (≈ 193 µM)
- MBC (Escherichia coli [11]; Example 2: isolate from endotracheal catheter tip culture): > 128 µg/mL

Compound: Co-trimoxazole
- MBC (Klebsiella pneumoniae [1]; [16]): > 16/304
- MIC (Klebsiella pneumoniae [1]; [16]): 8/152
- MBC (Klebsiella pneumoniae [1]; [17]): 16/304
- MIC (Klebsiella pneumoniae [1]; [17]): 8/152
- MBC (Salmonella senftenberg [2]): 16/304
- MIC (Salmonella senftenberg [2]): 8/152
- killing (Klebsiella pneumoniae [6]; [13]): 50%
- killing (Klebsiella pneumoniae [6]; [14]): 90%
- killing (Salmonella senftenberg [7]; antibiotic in combination with NE, uniform in all four concentrations): 60%

Compound: Gentamicin
- Growth Patterns after addition of NE: no. of cultures +++ (growth) (Staphylococcus aureus [12]; [18]): 89
- Growth Patterns after addition of NE: no. of cultures −−− (inhibition of growth) (Staphylococcus aureus [12]; [18]): 13
- Growth Patterns after addition of NE: no. of cultures +++ (growth) (Staphylococcus aureus [12]; [19]): 88
- Growth Patterns after addition of NE: no. of cultures −−− (inhibition of growth) (Staphylococcus aureus [12]; [19]): 14
- Growth Patterns after addition of NE: no. of cultures +++ (growth) (Staphylococcus aureus [12]; [20]): 88
- Growth Patterns after addition of NE: no. of cultures −−− (inhibition of growth) (Staphylococcus aureus [12]; [20]): 14
- Growth Patterns after addition of NE: no. of cultures +++ (growth) (Staphylococcus aureus [12]; [21]): 88
- Growth Patterns after addition of NE: no. of cultures −−− (inhibition of growth) (Staphylococcus aureus [12]; [21]): 14
